The source made the active and inactive calls. How the calls were made is not given here.
System: CCRIS mutagenicity, Ames/micronucleus/aberration tests
Assay: CCRIS mutagenicity studies
[1] = Test System: AMES SALMONELLA TYPHIMURIUM, Strain/Indicator: TA98, Metabolic Activation: NONE, Method: STANDARD PLATE
[2] = Test System: AMES SALMONELLA TYPHIMURIUM, Strain/Indicator: TA98, Metabolic Activation: RAT, LIVER, S-9, AROCLOR 1254, Method: STANDARD PLATE
[3] = Test System: AMES SALMONELLA TYPHIMURIUM, Strain/Indicator: TA100, Metabolic Activation: NONE, Method: STANDARD PLATE
[4] = Test System: AMES SALMONELLA TYPHIMURIUM, Strain/Indicator: TA100, Metabolic Activation: RAT, LIVER, S-9, AROCLOR 1254, Method: STANDARD PLATE
[5] = Test System: AMES SALMONELLA TYPHIMURIUM, Strain/Indicator: TA97, Metabolic Activation: NONE, Method: PREINCUBATION
[6] = Test System: AMES SALMONELLA TYPHIMURIUM, Strain/Indicator: TA98, Metabolic Activation: NONE, Method: PREINCUBATION
[7] = Test System: AMES SALMONELLA TYPHIMURIUM, Strain/Indicator: TA1535, Metabolic Activation: NONE, Method: PREINCUBATION

Measured: mutagenic call

CCS(=O)(=O)n1ncc(Cl)c(Cl)c1=O
inactive: [1] inactive; negative | [2] inactive; negative | Test System: AMES SALMONELLA TYPHIMURIUM, Strain/Indicator: TA1535, Metabolic Activation: NONE, Method: STANDARD PLATE inactive; negative | Test System: AMES SALMONELLA TYPHIMURIUM, Strain/Indicator: TA1535, Metabolic Activation: RAT, LIVER, S-9, AROCLOR 1254, Method: STANDARD PLATE inactive; negative | Test System: AMES SALMONELLA TYPHIMURIUM, Strain/Indicator: TA1537, Metabolic Activation: NONE, Method: STANDARD PLATE inactive; negative | Test System: AMES SALMONELLA TYPHIMURIUM, Strain/Indicator: TA1537, Metabolic Activation: RAT, LIVER, S-9, AROCLOR 1254, Method: STANDARD PLATE inactive; negative
active: [3] active; positive | [4] active; positive

O=CC(Cl)(Cl)Cl
inactive: Test System: AMES SALMONELLA TYPHIMURIUM, Strain/Indicator: TA97, Metabolic Activation: HAMSTER, LIVER, S-9, AROCLOR 1254 (10%), Method: PREINCUBATION inactive; negative | [5] inactive; negative | Test System: AMES SALMONELLA TYPHIMURIUM, Strain/Indicator: TA97, Metabolic Activation: RAT, LIVER, S-9, AROCLOR 1254 (10%), Method: PREINCUBATION inactive; negative | Test System: AMES SALMONELLA TYPHIMURIUM, Strain/Indicator: TA98, Metabolic Activation: HAMSTER, LIVER, S-9, AROCLOR 1254 (10%), Method: PREINCUBATION inactive; negative | [6] inactive; negative | Test System: AMES SALMONELLA TYPHIMURIUM, Strain/Indicator: TA98, Metabolic Activation: RAT, LIVER, S-9, AROCLOR 1254 (10%), Method: PREINCUBATION inactive; negative | Test System: AMES SALMONELLA TYPHIMURIUM, Strain/Indicator: TA100, Metabolic Activation: HAMSTER, LIVER, S-9, AROCLOR 1254 (5, 10 OR 30%), Method: PREINCUBATION inactive; negative | Test System: AMES SALMONELLA TYPHIMURIUM, Strain/Indicator: TA100, Metabolic Activation: RAT, LIVER, S-9, AROCLOR 1254 (5, 10 OR 30%), Method: PREINCUBATION inactive; negative | Test System: AMES SALMONELLA TYPHIMURIUM, Strain/Indicator: TA1535, Metabolic Activation: HAMSTER, LIVER, S-9, AROCLOR 1254 (10%), Method: PREINCUBATION inactive; negative | [7] inactive; negative | Test System: AMES SALMONELLA TYPHIMURIUM, Strain/Indicator: TA1535, Metabolic Activation: RAT, LIVER, S-9, AROCLOR 1254 (10%), Method: PREINCUBATION inactive; negative
active: Test System: AMES SALMONELLA TYPHIMURIUM, Strain/Indicator: TA100, Metabolic Activation: RAT, LIVER, S-9, Method: PREINCUBATION active; positive

N[C@@H](Cc1ccccc1)C(=O)O
inactive: [1] inactive; negative | [2] inactive; negative | [3] inactive; negative | [4] inactive; negative

O=[N+]([O-])c1ccc2c(c1)Cc1cc(O)ccc1-2
active: [6] active; positive | Test System: AMES SALMONELLA TYPHIMURIUM, Strain/Indicator: TA98, Metabolic Activation: S-9, Method: PREINCUBATION active; positive

c1ccc2[nH]cnc2c1
inactive: Test System: AMES SALMONELLA TYPHIMURIUM, Strain/Indicator: TA97, Metabolic Activation: HAMSTER, LIVER, S-9, AROCLOR 1254 (10 OR 30%), Method: PREINCUBATION inactive; negative | [5] inactive; negative | Test System: AMES SALMONELLA TYPHIMURIUM, Strain/Indicator: TA97, Metabolic Activation: RAT, LIVER, S-9, AROCLOR 1254 (10 OR 30%), Method: PREINCUBATION inactive; negative | Test System: AMES SALMONELLA TYPHIMURIUM, Strain/Indicator: TA98, Metabolic Activation: HAMSTER, LIVER, S-9, AROCLOR 1254 (10 OR 30%), Method: PREINCUBATION inactive; negative | [6] inactive; negative | Test System: AMES SALMONELLA TYPHIMURIUM, Strain/Indicator: TA98, Metabolic Activation: RAT, LIVER, S-9, AROCLOR 1254 (10 OR 30%), Method: PREINCUBATION inactive; negative | Test System: AMES SALMONELLA TYPHIMURIUM, Strain/Indicator: TA100, Metabolic Activation: HAMSTER, LIVER, S-9, AROCLOR 1254 (10 OR 30%), Method: PREINCUBATION inactive; negative | Test System: AMES SALMONELLA TYPHIMURIUM, Strain/Indicator: TA100, Metabolic Activation: NONE, Method: PREINCUBATION inactive; negative | Test System: AMES SALMONELLA TYPHIMURIUM, Strain/Indicator: TA100, Metabolic Activation: RAT, LIVER, S-9, AROCLOR 1254 (10 OR 30%), Method: PREINCUBATION inactive; negative | Test System: AMES SALMONELLA TYPHIMURIUM, Strain/Indicator: TA1535, Metabolic Activation: HAMSTER, LIVER, S-9, AROCLOR 1254 (10 OR 30%), Method: PREINCUBATION inactive; negative | [7] inactive; negative | Test System: AMES SALMONELLA TYPHIMURIUM, Strain/Indicator: TA1535, Metabolic Activation: RAT, LIVER, S-9, AROCLOR 1254 (10 OR 30%), Method: PREINCUBATION inactive; negative | Test System: AMES SALMONELLA TYPHIMURIUM, Strain/Indicator: TA1537, Metabolic Activation: HAMSTER, LIVER, S-9, AROCLOR 1254 (10 OR 30%), Method: PREINCUBATION inactive; negative | Test System: AMES SALMONELLA TYPHIMURIUM, Strain/Indicator: TA1537, Metabolic Activation: NONE, Method: PREINCUBATION inactive; negative | Test System: AMES SALMONELLA TYPHIMURIUM, Strain/Indicator: TA1537, Metabolic Activation: RAT, LIVER, S-9, AROCLOR 1254 (10 OR 30%), Method: PREINCUBATION inactive; negative

OCC(CO)NC1CC(O)(CO)C(O)C(O)C1O (stereo unspecified)
inactive: Test System: AMES SALMONELLA TYPHIMURIUM, Strain/Indicator: TA98, Metabolic Activation: NONE inactive; negative | Test System: AMES SALMONELLA TYPHIMURIUM, Strain/Indicator: TA98, Metabolic Activation: RAT, LIVER, S-9, SODIUM PHENOBARBITAL AND 5,6-BENZOFLAVONE inactive; negative | Test System: AMES SALMONELLA TYPHIMURIUM, Strain/Indicator: TA100, Metabolic Activation: NONE inactive; negative | Test System: AMES SALMONELLA TYPHIMURIUM, Strain/Indicator: TA100, Metabolic Activation: RAT, LIVER, S-9, SODIUM PHENOBARBITAL AND 5,6-BENZOFLAVONE inactive; negative | Test System: AMES SALMONELLA TYPHIMURIUM, Strain/Indicator: TA1535, Metabolic Activation: NONE inactive; negative | Test System: AMES SALMONELLA TYPHIMURIUM, Strain/Indicator: TA1535, Metabolic Activation: RAT, LIVER, S-9, SODIUM PHENOBARBITAL AND 5,6-BENZOFLAVONE inactive; negative | Test System: AMES SALMONELLA TYPHIMURIUM, Strain/Indicator: TA1537, Metabolic Activation: NONE inactive; negative | Test System: AMES SALMONELLA TYPHIMURIUM, Strain/Indicator: TA1537, Metabolic Activation: RAT, LIVER, S-9, SODIUM PHENOBARBITAL AND 5,6-BENZOFLAVONE inactive; negative | Test System: E. COLI, Strain/Indicator: WP2 UVRA, Metabolic Activation: NONE inactive; negative | Test System: E. COLI, Strain/Indicator: WP2 UVRA, Metabolic Activation: RAT, LIVER, S-9, SODIUM PHENOBARBITAL AND 5,6-BENZOFLAVONE inactive; negative

Reference: PubChem BioAssay AID1259407 (Chemical Carcinogenesis Research Information System (CCRIS), 2018)
